According to patent US20060014722A1, “Per (3,6-anhydro) cyclodextrin derivatives, their preparation and use thereof for separating ions, in particular chromium and manganese anions” (priority 2002, published 2006):

Experiments:
[1] = Ion-exchange plate chromatography (retardation factor Rf), complexing of chromium anions; assay type: binding; conditions: Polygram Ionex 25-SA-Na plates charged with the ion, developed four times in water
Source text: (§1) The use of thin layer chromatography plates charged with ions allows rapid evaluation of the complexing of these ions by the species to be evaluated; in the present case, plates of the Polygram Ionex 25-SA-Na type (Macherey-Nagel, ref.: 80613) charged with various counterions to be evaluated.
(§2) Thus, chromatography plates are used onto which are respectively bound the ions acetyl COO^− (designated Ac in FIG. 1), PO4^3−, NO3^−, Cr2O7^2−, Cl^−, SO4^2^−, HCO3^−, BO3^−, WO4^2−, MnO4^−, CrO4^2−, AsO4^2−, AlO2^−.
(§3) In each test, there is introduced onto the plate the compound of Example 1 which will be retained on the plate if it complexes the ions. […] The lower the Rf, for a given ion, the more the ion in question will form a complex with the cyclodextrin compound.

[2] = Solubility in water; assay type: physicochemical
[3] = Ion-exchange plate chromatography (retardation factor Rf), complexing of manganese anions; assay type: binding; conditions: Polygram Ionex 25-SA-Na plates charged with the ion, developed four times in water
Source text: as §1, §2, §3

[4] = Ion-exchange plate chromatography, complexing of cations; assay type: binding; conditions: 18 cations tested on ion-exchange plates
Source text: as §1, §3
Likewise, tests were carried out to see whether the derivatives according to the invention were capable of complexing cations. Tests were carried out with the following ions:
Na^+, K^+, Cs^+,NH4^+,Ca^2+,Ba^2+, Al^3+, Fe^3+, Co^2+, Ni^2+, Cu^2+, Ag^2+, Zn^2+, Hg^2+, Pb^2+, La^3+, Gd^3+, UO2^2+.

With “per(3,6-anhydro)cyclomaltohexaose per-2-O-ethylcarbamate [Example 1]” the “complexing rate for chromium ions (Rf, FIG. 1)” value [1] was “high complexing rate”, the solubility in water [2] was “low solubility in water” and the “complexing rate for manganese ions (Rf, FIG. 1)” value [3] was “high complexing rate”. For the same substance, the “complexing of cations (Rf, FIG. 2)” value [4] was “none of these cations efficiently forms a complex”.
